Results reported in paper PMC6979384, “Characterization of the plant homeodomain (PHD) reader family for their histone tail interactions” (Epigenetics & Chromatin, 2020).

Assays:
Test in all cases: Histone peptide microarray
Format in all cases: binding, human
Conditions in all cases: histone peptide array
AIRE (PP) = tested on: AIRE (PP)
Outline: (§1)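 Readout is array binding signal, reported as the mean and standard deviation over four replicates. Each purified GST-fused PHD domain was incubated at 0.5 μM with a library of 293 modified histone peptides.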

BAZ2B = tested on: BAZ2B
Outline: as §1

BPTF (PB) = tested on: BPTF (PB)
Outline: as §1

CHD4 (PPCC) = tested on: CHD4 (PPCC)
Outline: as §1

CHD5 (PCC) = tested on: CHD5 (PCC)
Outline: as §1

CHD5 (PPCC) = tested on: CHD5 (PPCC)
Outline: as §1

DIDO1 = tested on: DIDO1
Outline: as §1

DPF2 (PPC2W2) = tested on: DPF2 (PPC2W2)
Outline: as §1

ING1 = tested on: ING1
Outline: as §1

ING2 = tested on: ING2
Outline: as §1

ING3 = tested on: ING3
Outline: as §1

ING4 = tested on: ING4
Outline: as §1

ING5 = tested on: ING5
Outline: as §1

KDM4C (TTP) = tested on: KDM4C (TTP)
Outline: as §1

KDM5A (1) = tested on: KDM5A (1)
Outline: as §1

KDM5A (3) = tested on: KDM5A (3)
Outline: as §1

KDM5B (1) = tested on: KDM5B (1)
Outline: as §1

KDM5B (3) = tested on: KDM5B (3)
Outline: as §1

KDM7A = tested on: KDM7A
Outline: as §1

MLL5 = tested on: MLL5
Outline: as §1

MORC3 (CW) = tested on: MORC3 (CW)
Outline: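 Purified PHD finger domains fused to GST are screened against 293 synthetic histone peptides bearing one or several post-translational modifications. The protein is used at 0.5 μM, and the signal from four replicate arrays is averaged, with standard deviation given.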

PHF13 = tested on: PHF13
Outline: as §1

PHF21A = tested on: PHF21A
Outline: as §1

PHF23 = tested on: PHF23
Outline: as §1

PHF2 = tested on: PHF2
Outline: as §1

PHF8 = tested on: PHF8
Outline: as §1

PHRF1 (RP) = tested on: PHRF1 (RP)
Outline: as §1

RAG2 = tested on: RAG2
Outline: as §1

SP140L = tested on: SP140L
Outline: as §1

TAF3 = tested on: TAF3
Outline: as §1

TRIM66 (PB) = tested on: TRIM66 (PB)
Outline: as §1

[1] = sheet "Array Heatmap", GST-tagged reader, total n = 4

## H3T3p: H3 1-20 [Peptide H3T3p]
AIRE (PP); GST-tagged AIRE (PP), arrays performed twice, n of 4
  Array Heatmap signal, AIRE (PP): 0.5392
AIRE (PP); [1]
  Array Heatmap signal, AIRE (PP): 0.548
BAZ2B; GST-tagged BAZ2B, arrays performed twice, n of 4
  Array Heatmap signal, BAZ2B: 0.469
BAZ2B; [1]
  Array Heatmap signal, BAZ2B: 0.5253
BPTF (PB); GST-tagged BPTF (PB = PHD + Bromodomain), arrays performed twice, n of 4
  Array Heatmap signal, BPTF (PB): 0.3368
BPTF (PB); [1]
  Array Heatmap signal, BPTF (PB): 0.3878
CHD4 (PPCC); GST-tagged CHD4 (PPCC = Dual PHD + Dual Chromodomain), arrays performed twice, n of 4
  Array Heatmap signal, CHD4 (PPCC): 0.5719
CHD4 (PPCC); [1]
  Array Heatmap signal, CHD4 (PPCC): 0.6586
CHD5 (PCC); GST-tagged CHD5 (PCC = PHD + Dual Chromodomain), arrays performed twice, n of 4
  Array Heatmap signal, CHD5 (PCC): 0.8206
CHD5 (PCC); [1]
  Array Heatmap signal, CHD5 (PCC): 0.8423
CHD5 (PPCC); GST-tagged CHD5 (PPCC = Dual PHD + Dual Chromodomain), arrays performed twice, n of 4
  Array Heatmap signal, CHD5 (PPCC): 0.549
CHD5 (PPCC); [1]
  Array Heatmap signal, CHD5 (PPCC): 0.6245
DIDO1; GST-tagged DIDO1, arrays performed twice, n of 4
  Array Heatmap signal, DIDO1: 0.6402
DIDO1; [1]
  Array Heatmap signal, DIDO1: 0.7808
DPF2 (PPC2W2); GST-tagged DPF2 (PPC2W2 = Dual PHD + C2W2-type Zn-finger), arrays performed twice, n of 4
  Array Heatmap signal, DPF2 (PPC2W2): 0.671
DPF2 (PPC2W2); [1]
  Array Heatmap signal, DPF2 (PPC2W2): 0.7196
ING1; GST-tagged ING1, arrays performed twice, n of 4
  Array Heatmap signal, ING1: 0.5096
ING1; [1]
  Array Heatmap signal, ING1: 0.5929
ING2; GST-tagged ING2, arrays performed twice, n of 4
  Array Heatmap signal, ING2: 0.5798
ING2; [1]
  Array Heatmap signal, ING2: 0.6196
ING3; GST-tagged ING3, arrays performed twice, n of 4
  Array Heatmap signal, ING3: 0.4483
ING3; [1]
  Array Heatmap signal, ING3: 0.5306
ING4; GST-tagged ING4, arrays performed twice, n of 4
  Array Heatmap signal, ING4: 0.4601
ING4; [1]
  Array Heatmap signal, ING4: 0.5373
ING5; GST-tagged ING5, arrays performed twice, n of 4
  Array Heatmap signal, ING5: 0.3543
ING5; [1]
  Array Heatmap signal, ING5: 0.4158
KDM4C (TTP); GST-tagged KDM4C (TTP = Tandem Tudor domain + PHD), arrays performed twice, n of 4
  Array Heatmap signal, KDM4C (TTP): 0.5211
KDM4C (TTP); [1]
  Array Heatmap signal, KDM4C (TTP): 0.5646
KDM5A (1); GST-tagged KDM5A (1), arrays performed twice, n of 4
  Array Heatmap signal, KDM5A (1): 0.4969
KDM5A (1); [1]
  Array Heatmap signal, KDM5A (1): 0.535
KDM5A (3); GST-tagged KDM5A (3), arrays performed twice, n of 4
  Array Heatmap signal, KDM5A (3): 0.3913
KDM5A (3); [1]
  Array Heatmap signal, KDM5A (3): 0.4935
KDM5B (1); GST-tagged KDM5B (1), arrays performed twice, n of 4
  Array Heatmap signal, KDM5B (1): 0.6719
KDM5B (1); [1]
  Array Heatmap signal, KDM5B (1): 0.685
KDM5B (3); GST-tagged KDM5B (3), arrays performed twice, n of 4
  Array Heatmap signal, KDM5B (3): 0.5071
KDM5B (3); [1]
  Array Heatmap signal, KDM5B (3): 0.5631
KDM7A; GST-tagged KDM7A, arrays performed twice, n of 4
  Array Heatmap signal, KDM7A: 0.4522
KDM7A; [1]
  Array Heatmap signal, KDM7A: 0.4256
MLL5; GST-tagged MLL5, arrays performed twice, n of 4
  Array Heatmap signal, MLL5: 0.5378
MLL5; [1]
  Array Heatmap signal, MLL5: 0.5888
MORC3 (CW); GST-tagged MORC3 (CW = CW-type Zn-finger), arrays performed twice, n of 4
  Array Heatmap signal, MORC3 (CW): 0.3786
MORC3 (CW); [1]
  Array Heatmap signal, MORC3 (CW): 0.4886
PHF13; GST-tagged PHF13, arrays performed twice, n of 4
  Array Heatmap signal, PHF13: 0.5934
PHF13; [1]
  Array Heatmap signal, PHF13: 0.6741
PHF21A; GST-tagged PHF21A, arrays performed twice, n of 4
  Array Heatmap signal, PHF21A: 0.4766
PHF21A; [1]
  Array Heatmap signal, PHF21A: 0.5237
PHF23; GST-tagged PHF23, arrays performed twice, n of 4
  Array Heatmap signal, PHF23: 0.4911
PHF23; [1]
  Array Heatmap signal, PHF23: 0.575
PHF2; GST-tagged PHF2, arrays performed twice, n of 4
  Array Heatmap signal, PHF2: 0.434
PHF2; [1]
  Array Heatmap signal, PHF2: 0.5551
PHF8; GST-tagged PHF8, arrays performed twice, n of 4
  Array Heatmap signal, PHF8: 0.352
PHF8; [1]
  Array Heatmap signal, PHF8: 0.4275
PHRF1 (RP); GST-tagged PHRF1 (RP), arrays performed twice, n of 4
  Array Heatmap signal, PHRF1 (RP): 0.4037
PHRF1 (RP); [1]
  Array Heatmap signal, PHRF1 (RP): 0.5425
RAG2; GST-tagged RAG2, arrays performed twice, n of 4
  Array Heatmap signal, RAG2: 0.2333
RAG2; [1]
  Array Heatmap signal, RAG2: 0.2772
SP140L; GST-tagged SP140L, arrays performed twice, n of 4
  Array Heatmap signal, SP140L: 0.3332
SP140L; [1]
  Array Heatmap signal, SP140L: 0.3882
TAF3; GST-tagged TAF3, arrays performed twice, n of 4
  Array Heatmap signal, TAF3: 0.2971
TAF3; [1]
  Array Heatmap signal, TAF3: 0.3113
TRIM66 (PB); GST-tagged TRIM66 (PB = PHD + Bromodomain), arrays performed twice, n of 4
  Array Heatmap signal, TRIM66 (PB): 0.6313
TRIM66 (PB); [1]
  Array Heatmap signal, TRIM66 (PB): 0.6558

## H3T6p + K9ac + K14ac + K18ac: H3 1-20
AIRE (PP); [1]
  Array Heatmap signal, AIRE (PP): 0.4905
BAZ2B; [1]
  Array Heatmap signal, BAZ2B: 0.5434
BPTF (PB); [1]
  Array Heatmap signal, BPTF (PB): 0.3772
CHD4 (PPCC); [1]
  Array Heatmap signal, CHD4 (PPCC): 0.6105
CHD5 (PCC); [1]
  Array Heatmap signal, CHD5 (PCC): 0.8634
CHD5 (PPCC); [1]
  Array Heatmap signal, CHD5 (PPCC): 0.5917
DIDO1; [1]
  Array Heatmap signal, DIDO1: 0.7306
DPF2 (PPC2W2); [1]
  Array Heatmap signal, DPF2 (PPC2W2): 0.6625
ING1; [1]
  Array Heatmap signal, ING1: 0.5258
ING2; [1]
  Array Heatmap signal, ING2: 0.6332
ING3; [1]
  Array Heatmap signal, ING3: 0.5178
ING4; [1]
  Array Heatmap signal, ING4: 0.4858
ING5; [1]
  Array Heatmap signal, ING5: 0.4002
KDM4C (TTP); [1]
  Array Heatmap signal, KDM4C (TTP): 0.5471
KDM5A (1); [1]
  Array Heatmap signal, KDM5A (1): 0.5024
KDM5A (3); [1]
  Array Heatmap signal, KDM5A (3): 0.5014
KDM5B (1); [1]
  Array Heatmap signal, KDM5B (1): 0.6556
KDM5B (3); [1]
  Array Heatmap signal, KDM5B (3): 0.5165
KDM7A; [1]
  Array Heatmap signal, KDM7A: 0.5379
MLL5; [1]
  Array Heatmap signal, MLL5: 0.6174
MORC3 (CW); [1]
  Array Heatmap signal, MORC3 (CW): 0.436
PHF13; [1]
  Array Heatmap signal, PHF13: 0.6581
PHF21A; [1]
  Array Heatmap signal, PHF21A: 0.4965
PHF23; [1]
  Array Heatmap signal, PHF23: 0.5587
PHF2; [1]
  Array Heatmap signal, PHF2: 0.4724
PHF8; [1]
  Array Heatmap signal, PHF8: 0.3706
PHRF1 (RP); [1]
  Array Heatmap signal, PHRF1 (RP): 0.4494
RAG2; [1]
  Array Heatmap signal, RAG2: 0.2892
SP140L; [1]
  Array Heatmap signal, SP140L: 0.3823
TAF3; [1]
  Array Heatmap signal, TAF3: 0.2973
TRIM66 (PB); [1]
  Array Heatmap signal, TRIM66 (PB): 0.6292
